Experiment [1] concerns Arabidopsis seeds. The experiment in a line: Arabidopsis reversal assay with antidote compounds. Type of experiment: in vivo. The following applies: for Growth, % of Control: probe compound at 1.5× lethal concentration; for growth without the antidote (in words): probe compound alone, no antidote. The method, then:
The solutions are filter sterilized prior to addition. FIG. 4 represents a typical set up in a reversion assay for discovering inhibitors of AMP biosynthesis.
The left side (columns 1-3) of the 24-well microtiter plate is designed for controls, and the right side (columns 4-6) are designated for one probe compound. […] Rows B,C and D are supplemented with three doses of an antidote for the control and probe compound. […] The three doses are 50,100 and 150 μl respectively.
Forty ml of Arabidopsis growth media as described in Example 1 is sterilized and allowed to cool to about 45° C. A probe compound (at 1.5× lethal concentration) is added to columns 4 through 6 (right half of the plate). Media is distributed at 1.0 ml per well to all wells. Sterile seeds are added to each well as described above. As in Example 1, the plate is incubated and growth is scored.

Experiment [2] addresses T1, ADSS from E. coli (Escherichia coli, UniProt P0A7D4).
T1 construct: endogenous in cells; host or cells: E. coli
The experiment can be described thus: ADSS enzyme assay, E. coli ADSS. Type of experiment: biochemical. The following applies: E. coli ADSS (FIG. 6); for product formation by ADSS: compound at 100 μM. The method, then: (§1) ADSS is obtained from 4-5 day old, etiolated seedlings of Zea mays. Seedlings are homogenized in a Waring blender with an equal volume (grams of tissue=mls of buffer) of extraction buffer containing 50 mM EPPS, pH 7.5, 5 mM MgCl2, 0.1 mM EDTA, 5 mM sodium bisulfite, 5 mM DTT, 0.1 mM phenylmethanesulfonyl fluoride and 10% glycerol. The extract is expressed through Miracloth (Calbiochem, La Jolla, Calif.) sandwiched between layers of cheesecloth. To precipitate phenolics and nucleic acids, 0.2 to 0.4% w/v protamine sulfate is added to the extract. The extract is stirred for 30 minutes, and then centrifuged at 45,000×G for 60 minutes. The resulting supernatant is fractionated with ammonium sulfate. Proteins are retained which precipitate at concentrations of ammonium sulfate greater than 45% saturation, but less than 55% saturation. Similar methods are used to isolate ADSS from wheat germ, E. coli and rat liver. ADSS activity is further purified by subjecting the preparation to DEAE cellulose chromatography. The column is equilibrated with chromatography buffer consisting of 50 mM EPPS, pH 7.5, 10% glycerol, 0.1 mM EDTA, 5 mM MgCl2 and 1 mM DTT. After loading the enzyme preparation, the column is washed with two bed volumes of the chromatography buffer, then eluted with a linear, 10-bed-volume gradient of 0 to 0.4M KCl dissolved in the same buffer. The peak of ADSS activity elutes at a KCl concentration of about 150 mM. Fractions containing activity are pooled and the proteins concentrated by ultrafiltration. At this stage, the enzyme is suitable for high capacity screening tests that are designed to discover inhibitory compounds. Alternatively, hydrophobic interaction chromatography can be used instead of DEAE-cellulose. This material is optionally further purified by passage through a column of Sephadex G-75 equilibrated with the chromatography buffer described above. The peak of ADSS activity elutes at a retention volume corresponding to a molecular weight of approximately 50,000 Da.
(§2) ADSS is assayed by anion exchange HPLC and by a continuous spectrophotometric assay. For the former, enzyme is diluted appropriately with 50 mM EPPS, pH 8.3, 10% ethylene glycol, 10 mM potassium phosphate and 1 mM MgCl2 to a volume of 92 μL. […] The column eluate is monitored at 270 nm using a Perkin-Elmer LC 480 diode array detector. Integrated peaks are quantified from standard curves. Identity of the products of the ADSS reaction, GDP and adenylosuccinate, are determined by comparing their retention times and spectra with those of authentic standards, purchased from Sigma Chemical Co.
(§3) For the spectrophotometric assay, reaction mixtures are the same as above, except that the volume is doubled. […] This method of quantification was validated using the HPLC method.

Experiment [3] deals with adenylosuccinate lyase (ASL). The experiment in a line: Assay of adenylosuccinate lyase (ASL). The experiment is classed as biochemical, Zea mays. As to conditions: 1 mM concentration (data not shown). The procedure: ASL is obtained from three day old, etiolated seedlings of Zea mays (maize). Seedlings are homogenized in a Waring blender with an equal volume (grams of tissue=mls of buffer) of 20 mM potassium phosphate buffer (KP buffer) containing 1 mM DTT. The slurry is then filtered through a cheese cloth and the filtrate subjected to 100,000×g centrifugation for 60 minutes. The clear supernatant is used for assaying ASL activity.
A typical reaction mixture in 1 mL contains 100-300 μL of ASL and 0.15 mM adenylosuccinate (30 μL of a 5 mM solution in KP buffer), the rest being KP buffer. Disappearance of absorbance at 280 nm is followed as a function of time to determine the rate of ASL activity. Inhibitors when needed are included to a final concentration of 1 mM in the assay mixture to observe the effect on the ASL activity. Compounds hydantocidin, N-acetylhydantocidin, NAP-H and hadacidin had no effect on the rate of ASL activity at 1 mM concentration (data not shown).

Experiment [4] concerns the target T2, ADSS from wheat germ (Triticum aestivum, UniProt O24396).
T2 construct: from tissue
The experiment in a line: ADSS enzyme assay, wheat germ ADSS. As to conditions: for product formation by ADSS: compound at 100 μM, wheat germ ADSS (not shown). The experiment is classed as biochemical. The procedure:
as §1, with “Fractions containing activity are pooled and the proteins concentrated by ultrafiltration. At this stage, the enzyme is suitable for high capacity screening tests that are designed to discover inhibitory compounds. Alternatively, hydrophobic interaction chromatography can be used instead of DEAE-cellulose. This material is optionally further purified by passage through a column of Sephadex G-75 equilibrated with the chromatography buffer described above. The peak of ADSS activity elutes at a retention volume corresponding to a molecular weight of approximately 50,000 Da.” left out
ADSS is assayed by anion exchange HPLC and by a continuous spectrophotometric assay. […] The column eluate is monitored at 270 nm using a Perkin-Elmer LC 480 diode array detector. Integrated peaks are quantified from standard curves. Identity of the products of the ADSS reaction, GDP and adenylosuccinate, are determined by comparing their retention times and spectra with those of authentic standards, purchased from Sigma Chemical Co.
as §3

Experiment [5] concerns the target T3, ADSS from rat liver (Rattus norvegicus, UniProt D4AEP0).
T3 construct: from tissue; host or cells: rat liver
The experiment can be described thus: ADSS enzyme assay, rat liver ADSS. The experiment is classed as biochemical. The following applies: rat liver ADSS (FIG. 6); for product formation by ADSS: compound at 100 μM. The procedure:
as §1, §2, §3

Experiment [6] has as its target T4, adenylosuccinate synthetase (ADSS) isolated from maize (Zea mays, UniProt O24578).
T4 construct: ADSS is obtained from 4-5 day old, etiolated seedlings of Zea mays; from tissue; host or cells: 4-5 day old etiolated maize seedlings
As to conditions: known from the literature; cited from earlier work.

For experiment [7], the target named is T4, adenylosuccinate synthetase (ADSS) isolated from maize. The experiment can be described thus: ADSS enzyme assay (HPLC and spectrophotometric), maize ADSS. The experiment is classed as biochemical. As to conditions: for product formation by ADSS: compound at 100 μM, maize ADSS (not shown); for time course of ADSS inhibition: spectrophotometric assay (FIG. 7, FIG. 8). The procedure:
as §1
ADSS is assayed by anion exchange HPLC and by a continuous spectrophotometric assay. For the former, enzyme is diluted appropriately with 50 mM EPPS, pH 8.3, 10% ethylene glycol, 10 mM potassium phosphate and 1 mM MgCl2 to a volume of 92 μL. […] Reactions are stopped by adding 1 μL of 4N HCl. 95 μL of the reaction mixture is injected to a Hamilton PRP-X100 column equilibrated with 3% acetonitrile. Reactants and products are eluted with a convex gradient (Curve=-2) to 6% 1M potassium phosphate, pH 7, and 12% 2M KCl delivered during a span of 30 min by a Perkin-Elmer 410 BIO pump. The column eluate is monitored at 270 nm using a Perkin-Elmer LC 480 diode array detector. Integrated peaks are quantified from standard curves. Identity of the products of the ADSS reaction, GDP and adenylosuccinate, are determined by comparing their retention times and spectra with those of authentic standards, purchased from Sigma Chemical Co.
For the spectrophotometric assay, reaction mixtures are the same as above, except that the volume is doubled. […] The optical density increases as AS is formed. […] This method of quantification was validated using the HPLC method.

In experiment [8] the test system is Arabidopsis seeds. The experiment in a line: Arabidopsis bioassay, determination of the lethal concentration (LC 90). As to conditions: read-out: lethal concentration (LC 90); concentration causing 90% or greater growth inhibition vs control; 7 days, about 28° C.
Where [9] appears, read: antidote Adenosine + Guanosine 0.5-5.0 mM.
[10] abbreviates: antidote Cytidine + Uridine 0.5-5.0 mM.
[11] abbreviates: antidote Hypoxanthine 0.5-5.0 mM.

T4 sequence (O24578 45-484): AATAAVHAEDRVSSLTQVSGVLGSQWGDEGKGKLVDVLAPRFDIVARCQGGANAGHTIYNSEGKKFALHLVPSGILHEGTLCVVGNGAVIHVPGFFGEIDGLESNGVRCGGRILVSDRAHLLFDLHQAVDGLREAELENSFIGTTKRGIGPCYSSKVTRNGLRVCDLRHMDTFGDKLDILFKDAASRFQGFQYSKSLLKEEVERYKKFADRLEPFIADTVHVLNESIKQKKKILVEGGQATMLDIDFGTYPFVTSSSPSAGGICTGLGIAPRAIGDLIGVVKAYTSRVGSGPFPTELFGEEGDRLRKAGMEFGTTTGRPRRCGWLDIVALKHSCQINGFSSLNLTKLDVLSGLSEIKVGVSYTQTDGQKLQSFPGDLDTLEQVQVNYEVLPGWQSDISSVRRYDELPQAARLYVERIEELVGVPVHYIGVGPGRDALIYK
T1 sequence (P0A7D4 2-432): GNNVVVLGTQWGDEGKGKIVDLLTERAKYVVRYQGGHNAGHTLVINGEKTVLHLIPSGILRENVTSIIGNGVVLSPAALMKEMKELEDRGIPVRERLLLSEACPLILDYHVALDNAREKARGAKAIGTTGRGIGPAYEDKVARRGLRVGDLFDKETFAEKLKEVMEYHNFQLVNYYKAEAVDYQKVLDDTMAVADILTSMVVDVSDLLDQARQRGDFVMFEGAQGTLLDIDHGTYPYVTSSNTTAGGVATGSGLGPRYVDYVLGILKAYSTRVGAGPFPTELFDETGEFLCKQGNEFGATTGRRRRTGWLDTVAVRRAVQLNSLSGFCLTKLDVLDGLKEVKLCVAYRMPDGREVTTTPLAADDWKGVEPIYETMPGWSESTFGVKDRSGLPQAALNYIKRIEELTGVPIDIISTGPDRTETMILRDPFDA
T2 sequence (O24396 whole entry): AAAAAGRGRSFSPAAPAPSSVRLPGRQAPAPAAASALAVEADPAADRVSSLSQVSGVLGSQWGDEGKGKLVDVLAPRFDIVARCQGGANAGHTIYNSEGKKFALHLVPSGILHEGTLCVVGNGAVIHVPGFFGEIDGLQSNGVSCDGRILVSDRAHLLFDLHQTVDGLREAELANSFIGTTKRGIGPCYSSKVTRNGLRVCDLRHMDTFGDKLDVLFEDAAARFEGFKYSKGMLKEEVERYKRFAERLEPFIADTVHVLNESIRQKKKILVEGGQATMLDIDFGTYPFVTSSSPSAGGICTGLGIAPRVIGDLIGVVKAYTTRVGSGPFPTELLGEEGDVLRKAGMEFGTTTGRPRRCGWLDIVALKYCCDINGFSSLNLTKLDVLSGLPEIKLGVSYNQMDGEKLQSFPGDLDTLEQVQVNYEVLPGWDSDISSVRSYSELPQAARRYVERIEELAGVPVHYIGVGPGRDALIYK
T3 sequence (D4AEP0 1-456): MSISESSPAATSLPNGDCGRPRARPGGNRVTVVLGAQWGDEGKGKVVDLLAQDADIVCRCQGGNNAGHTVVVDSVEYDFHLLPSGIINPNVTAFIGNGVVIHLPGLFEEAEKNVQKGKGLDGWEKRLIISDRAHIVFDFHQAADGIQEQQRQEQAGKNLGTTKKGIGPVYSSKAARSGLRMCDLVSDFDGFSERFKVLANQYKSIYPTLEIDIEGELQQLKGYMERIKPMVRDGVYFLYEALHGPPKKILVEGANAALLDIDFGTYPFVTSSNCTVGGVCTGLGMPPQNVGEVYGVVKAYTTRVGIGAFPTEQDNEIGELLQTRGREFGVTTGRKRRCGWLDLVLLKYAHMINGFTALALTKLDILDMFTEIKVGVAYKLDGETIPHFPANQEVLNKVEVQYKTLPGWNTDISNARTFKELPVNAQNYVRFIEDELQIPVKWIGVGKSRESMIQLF

Regarding `O=CN(O)CC(=O)O` [hadacidin], the “Growth, % of Control” value is reported as 0% in experiment [1] (No antidote, 0 mM); 100% in experiment [1] (antidote ADP 0.5-5.0 mM); 100% in experiment [1] (antidote AMP 0.5-5.0 mM); 40% in experiment [1] (antidote ATP 0.5-5.0 mM); 55% in experiment [1] (antidote Adenine 0.5-5.0 mM); 80-100% in experiment [1] (antidote Adenosine 0.5-5.0 mM). For the same molecule, the “Growth, % of Control” value in experiment [1] (setting [9]) is recorded as 80%; in experiment [1] (setting [10]), 0%; in experiment [1] (antidote Guanine 0.5-5.0 mM) it was 0%; in experiment [1] (antidote Guanosine 0.5-5.0 mM), 0%; in experiment [1] (setting [11]), 0%; in experiment [1] (antidote IMP 0.5-5.0 mM), 5%. Besides, the “growth without the antidote (in words)” value in experiment [1] is listed as “Growth is not observed”. Also, the “product formation by ADSS” value in experiment [2], in experiment [4], in experiment [5] and in experiment [7] was “Product is not formed” throughout. Moreover, in experiment [3], the “effect on the rate of ASL activity” value is recorded as “no effect”. Further, in experiment [6], the “mode of ADSS inhibition” value was “competitively with aspartate”. The same molecule came in with an IC50 in experiment [7] ("under these conditions", ADSS source not given) of 3 µM. Moreover, in experiment [7], the “time course of ADSS inhibition” value was “not time dependent”.
Consider “5'-Phospho-N-acetyl-hydantocidin [NAP-H]”, for which the “Growth, % of Control” value was 0% in experiment [1] (No antidote, 0 mM); 100% in experiment [1] (antidote ADP 0.5-5.0 mM); 100% in experiment [1] (antidote AMP 0.5-5.0 mM); 40% in experiment [1] (antidote ATP 0.5-5.0 mM); 65% in experiment [1] (antidote Adenine 0.5-5.0 mM); 80-100% in experiment [1] (antidote Adenosine 0.5-5.0 mM). The “Growth, % of Control” value is 80% in experiment [1] (setting [9]); 0% in experiment [1] (setting [10]); 0% in experiment [1] (antidote Guanine 0.5-5.0 mM); 0% in experiment [1] (antidote Guanosine 0.5-5.0 mM); 0% in experiment [1] (setting [11]); 5% in experiment [1] (antidote IMP 0.5-5.0 mM). The “growth without the antidote (in words)” value in experiment [1] was “Growth is not observed”. Also, the “product formation by ADSS” value in experiment [2], in experiment [4], in experiment [5] and in experiment [7] was “Product is not formed” throughout. In addition, the “effect on the rate of ASL activity” value in experiment [3] is “no effect”. The “inhibition of ADSS (in words)” value in experiment [4] (10 μM, crude (desalted) extract from wheat germ, HPLC assay (FIG. 5)) was “Inhibition of ADSS”; in experiment [7] (5 μM, spectrophotometric assay), “is confirmed”. In addition, the IC90 in experiment [8] was approximately 8 µM. The “reversibility of ADSS inhibition” value in experiment [7] (enzyme incubated with 4 μM for 10 min, then Sephadex G-25) is reported as “inhibition is reversible”. Also, the “time course of ADSS inhibition” value in experiment [7] was “Inhibition is initially weak, but becomes greater”.
Take `NC(=O)c1ncn([C@@H]2O[C@H](CO)[C@@H](O)[C@H]2O)n1` [TCR, 1,2,4-triazole-3-carboxamide-1-ribose]: in experiment [1], the “growth without the antidote (in words)” value is on record as “Growth is not observed”.
On to `COc1c(C)c2c(c(O)c1C/C=C(\C)CCC(=O)O)C(=O)OC2` [MPA, Mycophenolic Acid], for which the “Growth, % of Control” value in experiment [1] (No antidote, 0 mM) was found to be 0%; in experiment [1] (antidote AMP 0.5-5.0 mM) it was 5%; in experiment [1] (antidote Adenine 0.5-5.0 mM) it was 0%; in experiment [1] (antidote Adenosine 0.5-5.0 mM), 5%; in experiment [1] (antidote GMP 0.5-5.0 mM), 90%; in experiment [1] (antidote Guanine 0.5-5.0 mM) it was 40%. Further, the “Growth, % of Control” value in experiment [1] (antidote Guanosine 0.5-5.0 mM) is on record as 80%; in experiment [1] (antidote IMP 0.5-5.0 mM) it was 5%. For the same molecule, the “growth without the antidote (in words)” value in experiment [1] was “Growth is not observed”.
Take N-acetyl hydantocidin: the “Growth, % of Control” value in experiment [1] (No antidote, 0 mM) is on record as 0%; in experiment [1] (antidote ADP 0.5-5.0 mM), 100%; in experiment [1] (antidote AMP 0.5-5.0 mM), 100%; in experiment [1] (antidote ATP 0.5-5.0 mM), 40%; in experiment [1] (antidote Adenine 0.5-5.0 mM) it was 60%; in experiment [1] (antidote Adenosine 0.5-5.0 mM), 80-100%. The “Growth, % of Control” value is recorded as 80% in experiment [1] (setting [9]); 0% in experiment [1] (setting [10]); 0% in experiment [1] (antidote Guanine 0.5-5.0 mM); 0% in experiment [1] (antidote Guanosine 0.5-5.0 mM); 0% in experiment [1] (setting [11]); 5% in experiment [1] (antidote IMP 0.5-5.0 mM). Also, the “growth without the antidote (in words)” value in experiment [1] is reported as “Growth is not observed”. The “inhibition of ADSS (in words)” value in experiment [2] and in experiment [5] was “neither the E. coli nor the rat liver ADSS are inhibited” in each case. Moreover, the “effect on the rate of ASL activity” value in experiment [3] was “no effect”. Besides, the IC90 in experiment [8] was approximately 12 µM.

The record behind these values is patent publication US5780254A, “Method for detection of herbicides” (Sandoz Ltd, priority 1996, dated 1998).
